Test results taken from patent publication US20250320245A1, “Nucleoside Analogues for the Treatment of Parasitic Infections” (Universiteit Antwerpen, priority 2021, published 2025).
Read-outs that look alike come from different tables or passages of the source.

Tests used:
[1] = Cytotoxicity assay on MRC-5 fibroblasts; assay type: cell-based; conditions: human; for CC50 at 3 day: MRC-5SV2 embryonic lung fibroblasts, Table 1, mean and SEM of two independent experiments, highest concentration 64 μM, read-out: MRC-5 off-target cytotoxicity (CC50); for IC50 at 3 day: MRC-5SV2 human embryonic lung fibroblasts, Table 2, two independent repeat experiments
Procedure: MRC-5SV2 (Sigma-Aldrich/ECACC, catalogue number 84100401) human embryonic lung fibroblasts were used to perform cytotoxicity assays. The cells were cultured in minimum essential medium (MEM, Life Technologies) with Earle's salt medium, supplemented with L-glutamine, NaHCO3 and 5% inactivated fetal bovine serum (iFBS). Cells were seeded at 1.5×10^4 cells/well and 4-fold compound dilutions were immediately added with a highest in-test concentration of 64 μM. After a 3-day incubation, resazurin (Sigma-Aldrich) was added to each well (final concentration of 10 μg mL^−1), and cell viability was assessed by fluorescent reading (Tecan®, GENios) following 4 h of incubation with resazurin (37° C./5% CO2). The results were expressed as percentage reduction in cell growth/viability compared to control wells and the 50% cytotoxic concentration (CC50) was calculated for each of the compounds.

T. brucei (Squib 427) = assay: In vitro drug susceptibility assay, T. brucei; assay type: cell-based; conditions: Trypanosoma brucei
Procedure: (§1) Drug susceptibility assays with T. brucei (Squib 427), T. evansi type A (RoTat 1.2) and T. equiperdum (BoTat 1.1) were performed under similar conditions. Parasites were cultured in HMI-9 culture medium supplemented with 10% iFBS. To determine in vitro susceptibility of the abovementioned Trypanosoma species, 10 concentrations of a 4-fold dilution series (with a highest in-test concentration of 64 μM) was prepared for each compound, and parasites were seeded at 1.5×10^4 parasite/well. After 72 h of drug exposure at 37° C. with 5% CO2, resazurin was added to the wells (final concentration of 10 μg mL^−1), followed by another incubation for 24 h. Cell viability was determined by fluorescence reading (Tecan®, GENios) and 50% inhibitory concentration (IC50) was calculated for each compound.

T. vivax (ILRAD700) = assay: Ex vivo drug susceptibility assay, T. vivax; assay type: cell-based; conditions: Trypanosoma vivax
Text: (§2) T. congolense (IL3000), the isometamidium (ISM)-resistant T. congolense strain (MSORO M7H), T. evansi type A (RoTat 1.2), T. evansi type B (KETRI 2479) and T. equiperdum (BoTat 1.1) used for in vitro, ex vivo and in vivo experiments were kindly provided by the Institute of Tropical Medicine (ITM), and T. vivax (ILRAD700) and T. congolense (TC13) used for ex vivo and in vivo experiments, were kindly provided by the University of Brussel (VUB).
(§3) Ex Vivo Drug Susceptibility Assays for T. vivax, T. congolense ISM-Resistant, and T. evansi Type B
(§4) For Trypanosoma species/strains that were not adapted to culture conditions, donor mice were infected intraperitoneally with 10^4 parasites. Around day 5-6 post infection, blood was collected via cardiac puncture and parasites were isolated using mini-anion exchange centrifugation technique (mAECT). 4-fold dilutions of the test compounds were prepared with the highest concentration of 64 μM, and parasites were seeded at 1×10^5 parasite/well. Following 24 h of drug exposure at 37° C. and 5% CO2, resazurin was added to the wells and plates were incubated (37° C./5% CO2) for another 24 h. Cell viability was determined by fluorescence reading (Tecan®, GENios), and IC50 values were calculated by non-linear regression (dose-response curve with variable slope) using Prism 8.0 (GraphPad Software Inc., San Diego, CA, USA).

T. congolense (IL3000) = assay: In vitro drug susceptibility assay, T. congolense; assay type: cell-based; conditions: Trypanosoma congolense; Table 2; two independent repeat experiments
Procedure: Drug susceptibility assays for T. congolense (IL3000) were performed with parasites cultured in HMI-9 medium supplemented with 15% horse serum. Parasites were seeded at a concentration of 1.5×10^4 parasite/well and exposed to a 4-fold compound dilution series starting at a highest in-test concentration of 64 μM. Plates were incubated for 72 h at 34° C. and 5% CO2, followed by the addition of resazurin (Sigma, Aldrich) and a further incubation period of 24 h. Cell viability was quantified by fluorescence reading (Tecan®, GENios), and IC50 values were calculated by non-linear regression (dose-response curve with variable slope) using Prism 8.0 (GraphPad Software Inc., San Diego, CA, USA).

[2] = test system: isometamidium (ISM)-resistant T. congolense strain (MSORO M7H); assay: Ex vivo drug susceptibility assay, T. congolense ISM-resistant; assay type: cell-based; conditions: Trypanosoma congolense; Table 2; two independent repeat experiments; read-out: IC50 T. congolense ISM-R
Text: as §2, §3, §4

[3] = test system: T. evansi type A (RoTat 1.2); assay: In vitro drug susceptibility assay, T. evansi type A; assay type: cell-based; conditions: Table 2; two independent repeat experiments; read-out: IC50 T. evansi (type A)
Procedure: as §1

[4] = test system: T. evansi type B (KETRI 2479); assay: Ex vivo drug susceptibility assay, T. evansi type B; assay type: cell-based; conditions: Table 2; two independent repeat experiments
Text: as §2, §3, §4

[5] = test system: T. equiperdum (BoTat 1.1); assay: In vitro drug susceptibility assay, T. equiperdum; assay type: cell-based; conditions: Trypanosoma equiperdum; Table 2; two independent repeat experiments
Procedure: as §1

[6] = In vitro metabolic stability, mouse liver S9; assay type: in vitro ADME; conditions: for metabolic stability in mouse liver microsomes: mouse liver S9, phase-I, without 1-ABT; for effect of 1-aminobenzotriazole (1-ABT) on phase-I metabolic decay: mouse microsome pre-incubated with 1-ABT
Procedure: The metabolic stability of selected compounds was determined in the presence of mice, horse, and bovine liver microsome fractions (S9) through phase-I (CYP450 and NADPH dependent enzymes) and Phase-II (UGT enzymes) metabolisms. Samples were collected after 0, 15, 30, and 60 minutes of incubation and the corresponding loss of parent compound was determined via liquid chromatography (UPLC) (Waters Aquity™) coupled with tandem quadrupole mass spectrometry (MS^2) (Waters Xevo™), equipped with an electrospray ionization (ESI) interface and operated in multiple reaction monitoring (MRM) mode.

[7] = test system: T. B. brucei AnTAR1.1 PPYRE9; assay: Bioluminescent T. brucei late curative mouse model; assay type: in vivo, female Swiss mice; conditions: single-dose i.p. 50 mg kg−1
Procedure: Female Swiss mice (BW˜20-24 g; Janvier Labs, France) were randomly allocated to group of 3 animals and were intraperitoneally infected with 2×10^3 T. B. brucei AnTAR1.1 PPYRE9 derived from a heavily infected donor mouse. FH15967 was formulated in 10% (v/v) polyethylene glycol 400 (PEG400) in water at 2 mg mL^−1 and was administrated to separate groups as single dose s.i.d. i.p. at 50 mg kg-1 (n=3), and b.i.d i.p. at 50 mg kg^−1 (n=3). The reference drug diminazene aceturate was formulated in PBS at 2.5 mg mL^−1 and administrated s.i.d i.p. as a single dose at 10 mg kg^−1. Treatment was initiated at 3 dpi when parasitemia reached 10^6 parasites mL^−1, and parasitemia was microscopically determined via Neubaur improved haemocytometer on a daily basis until 7 dpi. Bioluminescent images were obtained at 3, 5 and 7 dpi to determine parasite burdens in the body. Accordingly, D-luciferin was injected i.p. at 15 mg kg^−1, animals were anaesthetised using isoflurane, and luminescent signals were acquired from both the dorsal and ventral sides of the animals. […] BLI images that obtained from IVIS Spectrum In vivo Imaging System (Perkin Elmer) were quantified with Living Image V4.3.1 SoftWoRx Suite 2.0 for microscopy, then processing using the Fiji software.

[8] = Table 1, mean and SEM of two independent experiments, read-out: T. brucei in vitro activity (IC50)
[9] = Table 2, two independent repeat experiments, read-out: IC50 T. brucei
[10] = Table 1, mean and SEM of two independent experiments, read-out: T. vivax in vitro activity (IC50)
[11] = Table 2, two independent repeat experiments, read-out: IC50 T. vivax

Row | IC50 (T. brucei (Squib 427); [8]) [nM] | IC50 (T. brucei (Squib 427); [9]) [nM] | IC50 (T. vivax (ILRAD700); [10]) [nM] | IC50 (T. vivax (ILRAD700); [11]) [nM] | IC50 (T. congolense (IL3000)) [nM] | IC50 [3] [nM] | IC50 [4] [nM] | IC50 [5] [nM] | metabolic stability in mouse liver microsomes [6] | effect of 1-aminobenzotriazole (1-ABT) on phase-I metabolic decay [6] | SMILES | CC50 at 3 day [1] [nM] | IC50 at 3 day [1] [nM] | IC50 [2] [nM] | parasitemia decline by bioluminescent imaging and signal quantification ([7]; even faster than the diminazene aceturate reference group) | blood parasitemia ([7]; until day 7 post infection)
1 | 34 ± 1 | 34 ± 1 | 34 ± 4 | 34 ± 4 | 180 ± 8 | 100 ± 5 | 14 ± 4 | 25 ± 4 | phase-I metabolic degradation | adequately block phase-I metabolic decay | C=CCSc1ncnc2c1ccn2[C@@H]1O[C@H](CO)[C@@H](O)[C@H]1O [FH15963, 4-S-allyl-N7-(β-D-ribofuranosyl)pyrrolo[2,3-d]pyrimidine] | > 64000 | > 64000 | 140 ± 50 |  | 
2 | 440 ± 1 | 490 ± 100 | 5 ± 10 | 4 ± 2 | 43 ± 8 | 760 ± 30 | 16 ± 3 | 40 ± 0.2 | phase-I metabolic degradation | adequately block phase-I metabolic decay | CSc1ncnc2c1ccn2[C@@H]1O[C@H](CO)[C@@H](O)[C@H]1O [FH15961/CL5565] | > 64000 | > 64000 | 430 ± 20 |  | 

Row | SMILES | IC50 (T. brucei (Squib 427); [8]) [nM] | IC50 (T. brucei (Squib 427); [9]) [nM] | IC50 (T. vivax (ILRAD700); [10]) [nM] | IC50 (T. vivax (ILRAD700); [11]) [nM] | IC50 (T. congolense (IL3000)) [nM] | IC50 [3] [nM] | IC50 [4] [nM] | IC50 [5] [nM] | metabolic stability in mouse liver microsomes [6] | effect of 1-aminobenzotriazole (1-ABT) on phase-I metabolic decay [6] | CC50 at 3 day [1] [nM] | IC50 at 3 day [1] [nM] | IC50 [2] [nM] | parasitemia decline by bioluminescent imaging and signal quantification ([7]; even faster than the diminazene aceturate reference group) | blood parasitemia ([7]; until day 7 post infection)
3 | OC[C@H]1O[C@@H](n2ccc3c(Sc4ccccc4)ncnc32)[C@H](O)[C@@H]1O [FH15967, 4-S-phenyl-N7-(β-D-ribofuranosyl)pyrrolo[2,3-d]pyrimidine] | 31 ± 8 | 31 ± 8 | 44 ± 5 | 44 ± 5 | 100 ± 20 | 33 ± 6 | 18 ± 6 | 26 ± 5 | phase-I metabolic degradation | adequately block phase-I metabolic decay | > 64000 | > 64000 | 180 ± 9 | rapid parasitemia decline | negative blood parasitemia
